The experiment is described as follows: Antagonist activity at lasB in Pseudomonas aeruginosa harboring lasB-gfp gene assessed as inhibition of […]-induced quorum sensing by green fluorescence protein reporter assay.

Our source for the IC50 values is BindingDB's records for doi:10.1016/j.bmc.2015.01.038 (Technical University of Denmark, 2015).

The structures appear in SMILES notation.

As usually defined, the IC50 is the concentration at which inhibition is half-maximal. For `O=C(Cn1cc(C2CCCC2)nn1)N[C@H]1CCOC1=O`, the IC50 is 610 µM.

On to `O=C(Cn1cc(C2CC2)nn1)N[C@H]1CCOC1=O`, for which the IC50 came to 499 µM. Take `[N-]=[N+]=Nc1ccc(C(=O)N[C@H]2CCOC2=O)cc1`: the IC50 worked out at 1100 µM. As to `O=C(Cn1cc(CSc2ccccc2)nn1)N[C@H]1CCOC1=O`, the IC50 came out at 692 µM. For the compound `O=Cc1cccc(-n2cc(CCC(=O)N[C@H]3CCOC3=O)nn2)c1`, the IC50 came to 381 µM.

Consider `CCCc1cn(CC(=O)N[C@H]2CCOC2=O)nn1`, for which the IC50 was 678 µM. In the case of `O=C(Cn1cc(C2CCCCC2)nn1)N[C@H]1CCOC1=O`, the IC50 was 889 µM.

For `O=C(Cn1cc(-c2ccsc2)nn1)N[C@H]1CCOC1=O`, the IC50 was 582 µM.

Take `CCCCCCc1cn(CC(=O)N[C@H]2CCOC2=O)nn1`: the IC50 came out at 425 µM.
